Experimental data reported in PMC4681344, “Selective targeting of the BRG/PB1 bromodomains impairs embryonic and trophoblast stem cell maintenance” (Science Advances, 2015).
pKd: −log10 of the molar value.

What was measured:
supercoiled pBR322 DNA = test: DNA unwinding assay; settings: 1, 5, or 10 μM
Description: DNA incubated with DMSO (Sigma-Aldrich; D8418) in the presence or absence of the enzyme was run as control. After extraction by butanol (Sigma-Aldrich; 281549) and chloroform/isoamyl alcohol 24:1 (Sigma-Aldrich; C0549), the DNA was run in a 1% (w/v) agarose gel (Web Scientific; AGR-500) with a 1-kb DNA ladder (Life Technologies; 10787) for 4 hours at 80 V. The gel was then stained with SYBR Safe for 30 min before ultraviolet visualization (UVP; BioDoc-It Imaging System).

[1] = Stability in aqueous solution; assay type: physicochemical; settings: 37°C, read-out: Half-life in aqueous solutions
[2] = tested on: NCI-60 panel of tumor cell lines; test: NCI-60 cell proliferation and survival; assay type: cell-based; settings: 10 μM inhibitor
[3] = tested on: 102 cellular receptors as well as 30 enzyme assays; test: Commercial CEREP screening panel
[4] = tested on: trophoblast stem cells (TSCs); test: TSC differentiation gene expression (RNA-seq, qRT-PCR); assay type: cell-based, mouse
Description: Derivation and culture of TSCs were performed as previously described ([34]). Shortly, TSCs were cultured in the absence of feeders in medium supplemented with FGF4 (30 ng/ml; R&D Systems, 235-F4-025/CF), heparin (1.2 μg/ml; Sigma, H3149), and 70% conditional medium (harvested from mitomycin-treated primary mouse embryonic fibroblasts). TSC medium contained RPMI 1640 (BD Biosciences, 354230), 20% ES-qualified fetal bovine serum (Invitrogen), 1% penicillin-streptomycin (Lonza, DE17-602E), 1% L-glutamine (Lonza, BE17-605E), 1% sodium pyruvate (Invitrogen, 11360), and 0.1 mM β-mercaptoethanol. To induce differentiation, TSCs were cultured on feeder-free conditions in TSC medium lacking FGF4 and heparin supplementation.
RNA was isolated as for the ESC samples.
RNA-Seq Library synthesis and analysis were performed at the DKFZ sequencing genomics core facility (Heidelberg, Germany). Mapping and bioinformatics analysis were performed using TopHat, EdgeR Gene-E, and HOMER ([35]–[37]). The raw data from the RNA set results are available through Gene Expression Omnibus (GEO) (accession no. GSE65358). Each replicate represents at least 12 million reads, a density sufficient for qualitative analysis of gene expression. The reads were aligned to the mm10 mouse genome, allowing a mismatch of 2%. We used WebGestalt to find affected pathways ([38]).

[5] = tested on: embryonic stem cells (CRG8 ESCs); test: ESC stemness and differentiation (microscopy, qRT-PCR); assay type: cell-based
Text: CRG8 ESCs were maintained in serum-containing media supplemented with LIF (1000 U/ml; ESGRO, ESG1106) on feeder-free gelatin-coated wells. ESC culture media contained Dulbecco’s modified Eagle’s medium/knockout (Invitrogen), 15% ES-qualified fetal bovine serum (Invitrogen), 1% penicillin-streptomycin (Lonza, DE17-602E), 1% L-glutamine (Lonza, BE17-605E), 1% sodium pyruvate (Invitrogen, 11360), 1% β-mercaptoethanol, and 1% nonessential amino acids (Invitrogen, 11140). Differentiation of ESCs was induced in the presence of retinoic acid (Sigma, R2625) by withdrawal of LIF supplementation.
qRT-PCR ESC samples were collected by culturing ESC in stemness conditions in the presence of 1 μM PF1-3 or control compound for 1 or 8 days. ESC-differentiated samples were collected by treating the cells with PF1-3 or control compound 24 hours before differentiation induction. RNA was isolated using RNeasy Mini Kit (Qiagen, 74106) following the manufacturer’s instructions. At least two samples were collected for each group, and each qRT-PCR was run in triplicates. The qRT-PCR data were normalized against the housekeeping genes Gapdh, Ppia, and Hprt and expressed against control compound–treated ESC in stemness conditions. A list of primers is compiled in tables S5 and S6.

[6] = tested on: H3K27me3 at Brg1 and Stat3 target genes in ESCs; test: ChIP of H3K27me3 in ESCs; assay type: cell-based; settings: promoters and TSSs, vs PFI-3oMet
Description: ChIP experiments were carried out with Covaris truChIP chromatin shearing reagent according to the manufacturer’s instructions with certain modifications. ESCs were fixed on-plate with 1% formaldehyde in phosphate-buffered saline for 5 min. Cells (10 million) were resuspended in 1 ml of shearing buffer and sonicated (Covaris S220) for 200 cycles per burst, 140 W peak power, 5% duty factor for 15 min in 1-ml Covaris tubes. The supernatant was then diluted to a protein concentration of 1.7 mg ml^−1, and 350 to 500 μg of protein were used for each immunoprecipitation reaction with anti-H3K27me3 (pab-069-050, Diagenode). The targeted gene fragments were amplified with primers used by Ho et al. ([27]).

[7] = target: T1, full-length GFP-tagged BRM in U2OS cells (Homo sapiens, UniProt P51531); test: Fluorescence recovery after photobleaching (FRAP); assay type: cell-based
T1 construct: constructs encoding GFP fused to the N terminus of full-length BRM; expressed in transfected cells; host or cells: U2OS
T1 sequence (P51531 whole entry, the tested form may be a part): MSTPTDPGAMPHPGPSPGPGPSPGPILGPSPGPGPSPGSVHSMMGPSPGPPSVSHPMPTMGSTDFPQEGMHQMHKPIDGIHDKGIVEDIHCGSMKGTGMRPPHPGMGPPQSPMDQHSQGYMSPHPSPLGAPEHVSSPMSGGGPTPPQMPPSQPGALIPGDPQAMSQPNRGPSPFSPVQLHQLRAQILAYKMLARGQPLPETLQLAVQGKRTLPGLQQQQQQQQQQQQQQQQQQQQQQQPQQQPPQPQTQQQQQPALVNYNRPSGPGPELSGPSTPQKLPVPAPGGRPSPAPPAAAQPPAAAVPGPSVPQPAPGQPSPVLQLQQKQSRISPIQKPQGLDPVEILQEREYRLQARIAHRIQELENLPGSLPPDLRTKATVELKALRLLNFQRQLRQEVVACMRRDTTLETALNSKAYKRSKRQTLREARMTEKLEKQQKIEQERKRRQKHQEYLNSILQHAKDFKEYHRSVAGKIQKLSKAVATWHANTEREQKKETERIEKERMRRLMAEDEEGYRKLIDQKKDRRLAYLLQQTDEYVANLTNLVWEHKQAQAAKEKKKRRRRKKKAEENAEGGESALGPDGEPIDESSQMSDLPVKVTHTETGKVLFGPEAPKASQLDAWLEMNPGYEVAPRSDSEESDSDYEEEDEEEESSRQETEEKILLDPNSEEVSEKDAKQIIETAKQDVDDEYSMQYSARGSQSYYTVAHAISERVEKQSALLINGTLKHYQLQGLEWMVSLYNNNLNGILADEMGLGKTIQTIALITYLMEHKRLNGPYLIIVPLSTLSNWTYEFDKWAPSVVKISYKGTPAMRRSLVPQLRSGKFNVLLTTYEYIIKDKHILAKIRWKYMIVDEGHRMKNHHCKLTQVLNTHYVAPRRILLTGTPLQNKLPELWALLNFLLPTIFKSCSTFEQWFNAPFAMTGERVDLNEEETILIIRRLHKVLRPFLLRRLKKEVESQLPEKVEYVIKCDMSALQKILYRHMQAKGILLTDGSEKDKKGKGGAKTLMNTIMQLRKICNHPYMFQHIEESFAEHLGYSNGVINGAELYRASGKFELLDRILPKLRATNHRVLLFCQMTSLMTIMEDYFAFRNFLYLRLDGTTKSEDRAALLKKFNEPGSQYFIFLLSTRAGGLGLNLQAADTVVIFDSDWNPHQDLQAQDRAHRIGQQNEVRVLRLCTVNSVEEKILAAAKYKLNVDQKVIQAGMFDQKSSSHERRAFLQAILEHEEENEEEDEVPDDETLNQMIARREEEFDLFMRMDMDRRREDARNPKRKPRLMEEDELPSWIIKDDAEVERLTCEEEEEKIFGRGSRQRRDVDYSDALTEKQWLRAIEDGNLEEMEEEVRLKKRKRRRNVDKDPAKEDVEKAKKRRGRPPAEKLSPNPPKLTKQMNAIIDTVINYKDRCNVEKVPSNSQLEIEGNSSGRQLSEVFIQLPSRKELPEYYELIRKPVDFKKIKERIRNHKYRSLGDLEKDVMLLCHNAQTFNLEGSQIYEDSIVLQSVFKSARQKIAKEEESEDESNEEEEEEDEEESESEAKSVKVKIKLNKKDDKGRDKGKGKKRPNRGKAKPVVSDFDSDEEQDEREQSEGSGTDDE
Description: FRAP studies were performed using a protocol modified from previous studies ([24]). In brief, U2OS cells were transfected (FuGENE HD, Roche) with mammalian overexpression constructs encoding GFP fused to the N terminus of full-length BRM. The FRAP and imaging system consisted of a Zeiss LSM 710 laser scanning and control system coupled to an inverted Zeiss Axio Observer.Z1 microscope equipped with a high numerical aperture (1.3) 40× oil immersion objective. Samples were placed in an incubator chamber capable of maintaining temperature and humidity. […] Once an initial scan had been taken, a region of interest corresponding to about 50% of the entire GFP-positive nucleus was empirically selected for bleaching. A time-lapse series was then taken to record GFP recovery using 1% of the power used for bleaching. The image data sets and fluorescence recovery data were exported from ZEN 2009, the microscope control software, into Microsoft Excel to determine the average half-time for full recovery for 10 to 20 cells per treatment point.

[8] = target: T2, fifth bromodomain of PB1 [PB1(5)] (Homo sapiens, UniProt Q86U86); test: Isothermal titration calorimetry (ITC) of SA; assay type: binding; settings: 15°C, read-out: KD (dissociation constant)
T2 construct: isothermal titration calorimetry (ITC) with the fifth bromodomain of PB1 [PB1(5)]; made in house
T2 sequence (Q86U86 653-763 limits assumed): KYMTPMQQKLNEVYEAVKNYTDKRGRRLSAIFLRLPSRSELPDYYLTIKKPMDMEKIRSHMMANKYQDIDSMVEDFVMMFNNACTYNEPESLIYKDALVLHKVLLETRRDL
Description: Experiments were carried out on a VP-ITC microcalorimeter (MicroCal). All experiments were performed at 15°C in 50 mM Hepes (pH 7.5), 150 mM NaCl. The titrations were conducted using an initial injection of 2 μl followed by 34 identical injections of 8 μl. The dilution heats were measured on separate experiments and were subtracted from the titration data. Thermodynamic parameters were calculated using ΔG = ΔH − TΔS = −RTlnKB, where ΔG, ΔH, and ΔS are the changes in free energy, enthalpy, and entropy of binding, respectively. In all cases, a single binding site model was used.

[9] = tested on: 48 members of the human BRD family; test: Thermal shift (ΔTm) selectivity screening; assay type: binding; settings: profiled against 48 BRDs; compounds at 10 μM
Description: Thermal melting experiments were carried out using an Mx3005P Real-Time PCR machine (Stratagene). Proteins were buffered in 10 mM Hepes (pH 7.5), 500 mM NaCl, and assayed in a 96-well plate at a final concentration of 2 μM in 20-μl volume. Compounds were added at a final concentration of 10 μM. SYPRO Orange (Molecular Probes) was added as a fluorescence probe at a dilution of 1:1000. Excitation and emission filters for the SYPRO Orange dye were set to 465 and 590 nm, respectively. The temperature was raised with a step of 3°C/min from 25° to 96°C, and fluorescence readings were taken at each interval.

BAF BRDs = test: Initial library screening for interaction with BAF BRDs; assay type: binding
[10] = 4 days of differentiation, vs control compound

With `O=C(/C=C/N1C[C@H]2C[C@@H]1CN2c1ccccn1)c1ccccc1O` [PFI-3, (E)-1-(2-hydroxyphenyl)-3-((1R,4R)-5-(pyridin-2-yl)-2,5-diazabicyclo[2.2.1]heptan-2-yl)prop-2-en-1-one] the DNA intercalation (supercoiled pBR322 DNA) was “did not intercalate into DNA”, the half-life [1] was over 168 h and the “Toxicity (cell proliferation and survival)” value [2] was “did not result in significant toxicity for any of the cell lines tested”. The “Interactions in CEREP panel” value [3] was “only interactions against four GPCRs (G protein–coupled receptor) with micromolar affinity”, the “Transcription of TSC differentiation markers (Prl3d1, Tpbpa)” value ([4]; 2 μM, differentiation (D4), qRT-PCR) was “marked increase” and the “Levels of Eomes, Brg1, Brm, and Pbrm1/Baf180” value ([4]; qRT-PCR) was “not affected”. For the same compound, the “Prl7d1 and Tpbpa transcription after washout” value ([4]; washout of the inhibitor during differentiation) was “could still be observed after washout of the inhibitor during differentiation of TSCs albeit to a lesser extent”, the “Transcription of stemness genes” value ([5]; 1 μM, 1 and 8 days, qRT-PCR) was “initial up- and subsequent down-regulation of stemness genes” and the “Morphological differentiation of ESCs” value ([5]; 1 μM, 8 days, stemness-maintaining conditions (LIF), vs PFI-3oMet) was “led to visible differentiation”. The Gata4 expression [5, 10] was “not significantly altered”, the Nes expression [5, 10] was “increased” and the “T (brachyury homolog) transcription” value [5, 10] was “at the expense of the brachyury homolog T transcription”. For the same compound, the “H3K27me3 at Brg1 and Stat3 binding sites” value [6] was “increase of H3K27me3”, the “Half-recovery time of wild-type GFP-BRM (FRAP)” value ([7]; 2.5 μM SAHA, compound exposure 1 hour) was “significantly accelerated the half-recovery time” and the “Ability to displace BRM from chromatin after 24 hours” value ([7]; exposure 24 hours, 37°C) was “did not show any loss”.
With `O=C(O)c1ccccc1O` [SA, salicylic acid] the pKd [8] was 3.60 and the “Selectivity in temperature shift (ΔTm) assay” value [9] was “good selectivity for BRDs present in BRG1/BRM and PB1”.
For `CCOC(=O)Nc1cc(-c2ccc(C)c(NS(C)(=O)=O)c2)nn2c(C)nnc12` [bromosporine], the “Binding to BAF BRDs” value (BAF BRDs) was “did not exhibit any binding”.
